Measured values published in patent US20260199484A1, “PROTAC DEGRADERS OF MLLT1 AND/OR MLLT3” (DARK BLUE THERAPEUTICS LTD, priority 2024, published 2026).

Columns and labels:
MLLT1 = target: T1, MLLT1 (Homo sapiens, UniProt Q03111); assay: MLLT1 degradation assay in MV4-11 cells (JESS, 24 h); format: cell-based; set-up: endogenous in cells; host or cells: MV4-11 (ATCC CRL-9591); settings: vs DMSO control
T1 sequence (Q03111 1-559): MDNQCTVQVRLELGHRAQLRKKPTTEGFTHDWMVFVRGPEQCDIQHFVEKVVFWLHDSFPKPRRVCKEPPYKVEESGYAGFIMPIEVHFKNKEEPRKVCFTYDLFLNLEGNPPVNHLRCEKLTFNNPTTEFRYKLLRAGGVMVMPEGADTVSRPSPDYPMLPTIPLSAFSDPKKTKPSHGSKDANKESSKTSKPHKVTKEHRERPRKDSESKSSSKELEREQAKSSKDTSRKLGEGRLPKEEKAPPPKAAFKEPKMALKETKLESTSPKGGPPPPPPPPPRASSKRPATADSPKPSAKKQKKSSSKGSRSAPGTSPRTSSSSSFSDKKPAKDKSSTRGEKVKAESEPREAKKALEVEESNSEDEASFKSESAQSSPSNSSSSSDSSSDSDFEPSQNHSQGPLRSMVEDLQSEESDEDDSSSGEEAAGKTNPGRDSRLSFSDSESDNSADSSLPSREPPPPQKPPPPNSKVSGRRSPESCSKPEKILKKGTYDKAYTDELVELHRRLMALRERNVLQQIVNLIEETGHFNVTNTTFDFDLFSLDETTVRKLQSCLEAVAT
Procedure, shortened: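 MV4-11 cells treated at 1000, 100 and 10 nM (0.1% DMSO) for 24 h at 37° C; lysates (4 ug protein) run on JESS capillary immunoassay with MLLT1 and GAPDH antibodies. Peak areas give % degradation versus DMSO, binned A (≥75%) to D (<25%).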

MV4-11 cells = assay: MV4-11 cellular proliferative assay, Assay Format B (CTG 2.0, 168 h); format: cell-based; settings: Homo sapiens, Assay format B, 168 h, read-out: IC50 (MV4-11 cellular proliferative assay)
Procedure, shortened: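 Cells seeded at 600/well in IMDM + 10% FBS, incubated overnight, then exposed 168 h (7 days) at 37 °C to 10 concentrations, 3-fold dilutions from 1 uM or 100 nM top dose (0.3% DMSO final). Viability by CTG 2.0 luminescence as % of DMSO control; curves fitted by four-parameter logistic regression.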

Question: For `Cc1nn(CC#Cc2cccc3c2CN(C2CCC(=O)NC2=O)C3=O)c2cc(C(=O)Nc3cc4[nH]c([C@H]5CCCN5C)cc4cn3)ccc12` (stereo partly drawn) [Example 72, 1-(3-(2-(2,6-dioxopiperidin-3-yl)-1-oxoisoindolin-4-yl)prop-2-yn-1-yl)-3-methyl-N-(2-((R)-1-methylpyrrolidin-2-yl)-1H-pyrrolo[3,2-c]pyridin-6-yl)-1H-indazole-6-carboxamide], which “MLLT1% Degradation @ 0.01 μM” value (MLLT1) is on record?
Answer: A (Category A: A≥75% degradation)

Question: What about the “MLLT1% Degradation @ 0.1 μM” value (MLLT1) of the same compound?
Answer: A (Category A: A≥75% degradation)

Question: What about the “MLLT1% Degradation @ 1 μM” value (MLLT1) of the same compound?
Answer: B (Category B: 50%≤B<75% degradation)

Question: What about the IC50 (MV4-11 cells) of the same compound?
Answer: < 0.1 µM

Question: How did the “MLLT1% Degradation @ 0.01 μM” value (MLLT1) turn out when `Cc1nn(C2CCC(CCCC#Cc3cccc4c3CN(C3CCC(=O)NC3=O)C4=O)CC2)c2cc(C(=O)Nc3cc4[nH]c([C@H]5CCCN5C)cc4cn3)ccc12` (stereo partly drawn) [Example 74, 1-(4-(5-(2-(2,6-dioxopiperidin-3-yl)-1-oxoisoindolin-4-yl)pent-4-yn-1-yl)cyclohexyl)-3-methyl-N-(2-((R)-1-methylpyrrolidin-2-yl)-1H-pyrrolo[3,2-c]pyridin-6-yl)-1H-indazole-6-carboxamide] was run?
Answer: B (Category B: 50%≤B<75% degradation)

Question: What about the “MLLT1% Degradation @ 0.1 μM” value (MLLT1) of the same compound?
Answer: B (Category B: 50%≤B<75% degradation)

Question: And the “MLLT1% Degradation @ 1 μM” value (MLLT1)?
Answer: A (Category A: A≥75% degradation)

Question: And the IC50 (MV4-11 cells)?
Answer: < 0.1 µM

Question: Which “MLLT1% Degradation @ 0.01 μM” value (MLLT1) does the source give for `Cc1nn(CC2CCN(c3ccc4c(c3)C(=O)N(C3CCC(=O)NC3=O)C4=O)CC2)c2cc(C(=O)Nc3cc4[nH]c([C@H]5CCCN5C)cc4cn3)ccc12` (stereo partly drawn) [Example 104, 1-((1-(2-(2,6-dioxopiperidin-3-yl)-1,3-dioxoisoindolin-5-yl)piperidin-4-yl)methyl)-3-methyl-N-(2-((R)-1-methylpyrrolidin-2-yl)-1H-pyrrolo[3,2-c]pyridin-6-yl)-1H-indazole-6-carboxamide] here?
Answer: B (Category B: 50%≤B<75% degradation)

Question: What about the “MLLT1% Degradation @ 0.1 μM” value (MLLT1) of the same compound?
Answer: A (Category A: A≥75% degradation)

Question: What about the “MLLT1% Degradation @ 1 μM” value (MLLT1) of the same compound?
Answer: C (Category C: 25%≤C<50% degradation)

Question: What about the IC50 (MV4-11 cells) of the same compound?
Answer: < 0.1 µM

Question: What does the source list for `Cc1nn(CCCCCC2CCN(c3cccc4c3CN(C3CCC(=O)NC3=O)C4=O)CC2)c2cc(C(=O)Nc3cc4[nH]c([C@H]5CCCN5C)cc4cn3)ccc12` (stereo partly drawn) [Example 105, 1-(5-(1-(2-(2,6-dioxopiperidin-3-yl)-1-oxoisoindolin-4-yl)piperidin-4-yl)pentyl)-3-methyl-N-(2-((R)-1-methylpyrrolidin-2-yl)-1H-pyrrolo[3,2-c]pyridin-6-yl)-1H-indazole-6-carboxamide]?
Answer: MLLT1% Degradation @ 0.01 μM (MLLT1): B (Category B: 50%≤B<75% degradation); MLLT1% Degradation @ 0.1 μM (MLLT1): A (Category A: A≥75% degradation); MLLT1% Degradation @ 1 μM (MLLT1): A (Category A: A≥75% degradation); IC50 (MV4-11 cells): < 0.1 µM

Question: Which results are given for `Cc1nn(CC2CCN(c3cccc4c3CN(C3CCC(=O)NC3=O)C4=O)CC2)c2cc(C(=O)Nc3cc4[nH]c([C@H]5CCCN5C)cc4cn3)ccc12` (stereo partly drawn) [Example 106, 1-((1-(2-(2,6-dioxopiperidin-3-yl)-1-oxoisoindolin-4-yl)piperidin-4-yl)methyl)-3-methyl-N-(2-((R)-1-methylpyrrolidin-2-yl)-1H-pyrrolo[3,2-c]pyridin-6-yl)-1H-indazole-6-carboxamide]?
Answer: MLLT1% Degradation @ 0.01 μM (MLLT1): A (Category A: A≥75% degradation); MLLT1% Degradation @ 0.1 μM (MLLT1): A (Category A: A≥75% degradation); MLLT1% Degradation @ 1 μM (MLLT1): A (Category A: A≥75% degradation); IC50 (MV4-11 cells): < 0.1 µM
